Measured values from PMC13185115, “Photovermellogens: Minimalistic Pyridinium-Based Acylhydrazones with Photoswitchable Basicity for Operation in Aqueous Media” (The Journal of Organic Chemistry, 2026).

Tests used:
[1] = pKa determination of E-P a-dH+ by UV-Vis titration; type: physicochemical; conditions: acidity constant of the cationic E form, water, 20 mM phosphate buffer, 298 K, triplicate
Excerpt: With the photovermellogens synthesized and fully characterized, their acid–base properties were next investigated by UV–vis spectroscopy to determine whether the pH-responsiveness characteristic of parent vermellogens was retained. Indeed, P a–dH·Cl reproduced the archetypical absorption changes of vermellogens (Figures c and S130–S137, SI1). , In essence, the characteristic intense π–π* absorption bands of the cations undergo a considerable bathochromic shift upon deprotonation (Table ), as also confirmed by our quantum chemical calculations (Figure S2, S2), causing a notable color change from yellow to red. This pronounced shift allowed the estimation of pK a values for E-P a–dH^+ via UV–vis absorption titrations, which, as for other vermellogens, fall within the biologically relevant pH range (Figure c, Table and Figures S130–S137, SI1). Changes in the protonation state were also easily monitored by ^1H NMR spectroscopy, with the gain in electronic density translating in a substantial shielding of resonances of the corresponding conjugate bases E/Z-P a–d (Figure a). As already observed for E-P a–dH^+, the deprotonated species were also thermally stable in the absence of light.
4. Determination of pK a values for E-P a-dH+ by UV-Vis spectroscopy.
All the experiments were recorded on a Jasco V-650 spectrometer. […] Considering the previously reported behaviour of vermellogens,5 UV-Vis spectra were initially recorded in the 4-12 pH range, to qualitatively determine in each case the presence or absence of characteristic absorption bands for the acidic-basic forms of the compounds. From the qualitative data, UV-Vis titrations were recorded in the appropriate pH range for each […]
Figure S132. UV-Vis spectra of P bH·Cl at pH 5 (black) and pH 12 (red) at 20 µM. b) Linear relationship at pH 5 between absorbance at 378 nm and concentration of P bH·Cl (ε = 42265 ± 838 L·mol -1·cm-1). c) Linear relationship at pH 12 between absorbance at 456 nm and concentration of P bH·Cl (ε = 42143 ± 1044 L·mol -1·cm-1). […]
Figure S134. UV-Vis spectra of P cH·Cl at pH 6 (black) and pH 12 (red) at 14 µM. b) Linear relationship at pH 6 between absorbance at 350 nm and concentration of P cH·Cl (ε = 49266 ± 1780 L·mol-1·cm-1). c) Linear relationship at pH 12 between absorbance at 433 nm and concentration of P cH·Cl (ε = 46382 ± 1667 L·mol -1·cm-1). […]
Figure S136. UV-Vis spectra of P dH·Cl at pH 6 (red) and pH 13 (black) at 11 µM. b) Linear relationship at pH 6 between absorbance at 411 nm and concentration of P dH·Cl (ε = 65691 ± 2966 L·mol-1·cm-1). c) Linear relationship at pH 13 between absorbance at 500 nm and concentration of P dH·Cl (ε = 69154 ± 3100 L·mol -1·cm-1). […]

[2] = pKa determination for the photostationary state (Z-enriched) by UV-Vis spectroscopy; type: physicochemical; conditions: apparent acidity constant of the cationic Z form as present in the photostationary state (88–97% Z) after 254 nm irradiation; water
Excerpt: Having confirmed the photochemical behavior of the protonated forms, we next explored their light-responsiveness in the deprotonated state. […] To probe whether Z-P a–c could nonetheless be generated indirectly, we explored a consecutive photoisomerization–deprotonation sequence. Thus, E-P a–cH^+ was first irradiated at 254 nm and pH 6 to enrich the Z population, followed by immediate adjustment of the solution to pH 13. Under these conditions, transient spectroscopic features were observed, consistent with the kinetic trapping of the metastable Z-P a–c species. […] These spectroscopic observations enabled the estimation of virtual pK a values for the Z-enriched solutions (Table and Figures S163–168, SI1), which confirmed the reduced acidity of the NH group in the Z-isomers, presumably arising from intramolecular hydrogen-bond formation.
6. Determination of pK a values for the PSS by UV-Vis spectroscopy.
The concentration of P a-cH·Cl was kept constant at appropriate values in the 10-20 µM range, and that of the phosphate buffer at 20 mM. The absorption measurements of the corresponding air-equilibrated phosphate buffered aqueous solutions were carried out at room temperature (298 K), in quartz cuvettes with 1 cm optical pathlength. For the kinetic trapping of the deprotonated Z-isomers of P a-cH·Cl, a solution of the corresponding salt in phosphate buffered solution at a conveniently acidic pH/pD was irradiated at 254 nm until reaching the PSS. Then, the pH of the solution was in each case adjusted to the required final value, by addition of 40 mM stock solutions of phosphate buffer of the required composition. The reported measurements were done as fast as possible to minimize thermal back-isomerization.

| pK a (E-PH^+) [1] | pK a (PSD) [2] | Structure (SMILES) |
| --- | --- | --- |
| 11.2 ± 0.1 |  | C[n+]1ccc(-c2ccc(NN=CC(=O)c3ccccc3)cc2)cc1 [P dH^+] |
| 8.8 ± 0.2 | 10.4 ± 0.2 | C[n+]1ccc(NN=CC(=O)c2ccccc2)cc1 [P aH^+] |
| 7.2 ± 0.1 | 8.8 ± 0.2 | C[n+]1ccc(NN=CC(=O)c2ccccc2)c2ccccc21 [P bH^+] |
| 7.8 ± 0.1 | 9.9 ± 0.1 | O=C(C=NNc1cc[n+](-c2ccccc2)cc1)c1ccccc1 [P cH^+] |
